The values that follow come from ChEMBL document CHEMBL1641439, “The effect of 5-substitution on the electrochemical behavior and antitubercular activity of PA-824” (2011).

Converted amounts (≈) assume the structure as drawn.

The test system of assay [1] is Mycobacterium tuberculosis. Put plainly: Antituberculosis activity against Mycobacterium tuberculosis H37Rv after 2 weeks. The settings on record: 336 h. In kind it is functional.
Assay [2] has as its system Mycobacterium tuberculosis. The assay can be described thus: Antituberculosis activity against Mycobacterium tuberculosis H37Rv assessed as minimum anaerobicidal cancentration after 3 weeks. Type of assay: functional.

`Nc1c([N+](=O)[O-])nc2n1C[C@H](OCc1ccc(OC(F)(F)F)cc1)CO2`: the MIC – broadly, the least concentration at which growth counts as inhibited – in assay [1] is more than 100 µM. In addition, in assay [2], the MAC is more than 100 µM. The like results for `O=[N+]([O-])c1nc2n(c1Br)C[C@H](OCc1ccc(OC(F)(F)F)cc1)CO2` were, in that order, 25 µM (≈ 11 µg/mL) and 32.5 µM. With `N#Cc1c([N+](=O)[O-])nc2n1C[C@H](OCc1ccc(OC(F)(F)F)cc1)CO2`, the MIC in assay [1] was more than 100 µM. Same read-out and setting: as for `O=[N+]([O-])c1nc2n(c1Cl)C[C@H](OCc1ccc(OC(F)(F)F)cc1)CO2`, the figure is 25 µM (≈ 9.84 µg/mL). In assay [1], `O=[N+]([O-])c1cn2c(n1)OC[C@@H](OCc1ccc(OC(F)(F)F)cc1)C2` [PRETOMANID] returned an MIC of 0.8 µM (≈ 0.287 µg/mL). Moreover, the MAC in assay [2] amounted to 8 µM.
